Data from patent US6071919A, “Zwitterionic compositions and methods as biological response modifiers” (priority 1998, dated 2000).
Where two headings read alike, the source gives them in different places. Where a SMILES comes first, the peptide text is derived from it.

Key:
[1] = ADA: data of Schwarzenbach et al. (1955); cited from earlier work
[2] = ADA: data of Schwarzenbach et al. (1955); cited from earlier work; remark: listed apart in the source
[3] = ADA: data of Schwarzenbach et al. (1955); cited from earlier work; remark: listed apart in the source
cancer tumors = experiment: Macrophage infiltration of tumors; format: in vivo, dogs; settings: dogs
Description: (§1) The amphoteric zwitterion compounds may be employed as active ingredients with other active ingredients, as well as other components and carriers typically used in pharmaceutical compositions; such as, but not limited to: buffers, stabilizers, dyes, antioxidants, dispersing agents, fillers, surfactants, silicones, bulking agents, pigments, salts, human or animal (natural or synthetic) cells and cellular components, antibiotics, drugs, vitamins, amino acids, proteins, serum and various other compounds and combinations thereof in varying amounts.

[4] = system: giant platelets and histiocytes; experiment: Giant platelets and histiocytes on peripheral smear; format: in vivo, animals; settings: blood / peripheral smear
Description: as §1

[5] = ADA: data of Schwarzenbach et al. (1955); cited from earlier work; remark: listed apart in the source
[6] = cited from earlier work; for αpKa /° C.: change of pKa per ° C.
[7] = cited from earlier work
[8] = as the hydrochloride (footnote b)

Compound | Metal-Buffer Binding Constants Log KM, Cu^2+ [1] | Metal-Buffer Binding Constants Log KM, Mg^2+ [2] | Metal-Buffer Binding Constants Log KM, Mn^2+ [3] | macrophage infiltration of cancer tumors (cancer tumors) | giant platelets and histiocytes [4] | Metal-Buffer Binding Constants Log KM, Ca^2+ [5] | pKa at 20° [6] | Saturated Solution at 0° [7] | αpKa /° C. [6] | Saturated Solution at 0° [7, 8]
O=S(=O)(O)CCN1CCN(CCS(=O)(=O)O)CC1 [PIPES] | Negl | Negl | Negl | macrophage infiltration of cancer tumors in dogs | production of giant platelets and histiocytes | Negl | – | – | – | –
O=S(=O)(O)CCN1CCOCC1 [MES] | Negl | – | – | – | – | – | – | – | – | –
O=S(=O)(O)CCN(CCO)CCO [BES] | 3.5 | Negl | Negl | – | – | Negl | 7.15 | – | – | –
NC(CO)(CO)CO [Tris] | – | Negl | Negl | – | – | Negl | – | 2.4 M | – | –
O=S(=O)(O)CCNC(CO)(CO)CO [TES] | 3.2 | Negl | Negl | – | – | Negl | 7.5 | 2.6 M | – | –
NC(=O)CN(CC(=O)O)CC(=O)O [ADA] | 9.7 | 2.5 | 4.9 | – | – | 4.0 | 6.6 | – | – | –
NC(=O)CNCCS(=O)(=O)O [ACES] | 4.6 | – | Negl | – | – | – | 6.9 | 0.22 M | -0.020 | –
C[N+](C)(C)CCN [Cholamine chloride] | Negl | Negl | Negl | – | – | Negl | 7.1 | – | -0.027 | 4.2 M
O=C(O)CN(CCO)CCO [Bicine] | – | 1.5 | – | – | – | 2.8 | – | – | -0.018 | –
NCC(N)=O [Glycinamide] | – | – | – | – | – | – | 8.2 | – | -0.029 | 4.6 M
O=C(O)CNC(CO)(CO)CO [Tricine] | 7.3 | 1.2 | – | – | – | 2.4 | – | 0.8 M | – | –
NC(=O)CNCC(=O)O [Acetamidoglycine, Acetamido-glycine] | – | – | – | – | – | – | ~7.7 | – | – | –
NCC(=O)NCC(=O)O [Glycylglycine] (H-Gly-Gly-OH) | 5.8 | – | 1.7 | – | – | – | 8.4 | – | – | –
